Data: patent US20220289708A1, “SUBSTITUTED N-PHENYL URACILS, SALTS THEREOF AND THEIR USE AS HERBICIDAL AGENTS” (Bayer Aktiengesellschaft, priority 2019, published 2022)

Assays:
Type in all cases: in vivo
Amaranthus retroflexus [1] = assay: Pre-emergence herbicidal action; conditions: application rate 20 g/ha
Source text: (§1) B. Pre-Emergence Herbicidal Action and Crop Plant Compatibility Seeds of monocotyledonous and dicotyledonous weed plants and crop plants were placed in plastic or organic planting pots and covered with soil. The compounds of the invention, formulated in the form of wettable powders (WP) or as emulsion concentrates (EC), were then applied to the surface of the covering soil as aqueous suspension or emulsion with addition of 0.5% additive at a water application rate equivalent to 600 l/ha (converted). After the treatment, the pots were placed in a greenhouse and kept under good growth conditions for the test plants. After about 3 weeks, the effect of the preparations was scored visually in comparison with untreated controls as percentages. For example, 100% activity=the plants have died, 0% activity=like control plants. Tables B1 to B13 below show the effects of selected compounds of the general formula (I) according to Tables I.1 to I.36 on various harmful plants and at an application rate corresponding to 80 g/ha or less, which were obtained by the experimental procedure mentioned above.

Alopecurus myosuroides [2] = assay: Pre-emergence herbicidal action
Source text: as §1

Echinochloa crus-galli [3] = assay: Pre-emergence herbicidal action; conditions: application rate 20 g/ha
Source text: as §1

Setaria viridis [4] = assay: Pre-emergence herbicidal action; conditions: application rate 20 g/ha
Source text: as §1

Avena fatua [5] = assay: Pre-emergence herbicidal action; conditions: application rate 80 g/ha
Source text: as §1

Abutilon theophrasti [6] = assay: Pre-emergence herbicidal action; conditions: application rate 20 g/ha
Source text: as §1

Matricaria inodora [7] = assay: Pre-emergence herbicidal action; conditions: application rate 20 g/ha
Source text: as §1

Viola tricolor [8] = assay: Pre-emergence herbicidal action; conditions: application rate 20 g/ha
Source text: as §1

Polygonum convolvulus [9] = assay: Pre-emergence herbicidal action; conditions: application rate 20 g/ha
Source text: as §1

Digitaria sanguinalis [10] = assay: Pre-emergence herbicidal action; conditions: application rate 20 g/ha
Source text: as §1

Veronica persica [11] = assay: Pre-emergence herbicidal action; conditions: application rate 20 g/ha
Source text: as §1

Lolium rigidum [12] = assay: Pre-emergence herbicidal action; conditions: application rate 80 g/ha
Source text: as §1

Pharbitis purpurea [13] = assay: Pre-emergence herbicidal action; conditions: application rate 20 g/ha
Source text: as §1

Echinochloa crus-galli [14] = assay: Post-emergence herbicidal action; conditions: application rate 5 g/ha, rated visually after about 3 weeks vs untreated controls
Method in brief: (§2)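 Greenhouse-grown plants in sandy loam were sprayed at the one-leaf stage, 2 to 3 weeks after sowing, with compounds formulated as WP or EC in water plus 0.5% additive at 600 l/ha, at rates of 20 g/ha and less. Activity was scored visually after about 3 weeks against untreated controls (100% = dead).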

Matricaria inodora [15] = assay: Post-emergence herbicidal action; conditions: application rate 5 g/ha, rated visually after about 3 weeks vs untreated controls
Method in brief: as §2

Digitaria sanguinalis [16] = assay: Post-emergence herbicidal action; conditions: application rate 5 g/ha, rated visually after about 3 weeks vs untreated controls
Method in brief: as §2

Veronica persica [17] = assay: Post-emergence herbicidal action; conditions: application rate 5 g/ha
Method in brief: as §2

Pharbitis purpurea [18] = assay: Post-emergence herbicidal action; conditions: application rate 5 g/ha, rated visually after about 3 weeks vs untreated controls
Method in brief: as §2

Zea mays [19] = assay: Pre-emergence crop plant compatibility; conditions: application rate 20 g/ha
Source text: (§3) B. Pre-Emergence Herbicidal Action and Crop Plant Compatibility
as §1, with “Seeds” for “B. Pre-Emergence Herbicidal Action and Crop Plant Compatibility Seeds”, “plants.” for “plants. Tables B1 to B13 below show the effects of selected compounds of the general formula (I) according to Tables I.1 to I.36 on various harmful plants and at an application rate corresponding to 80 g/ha or less, which were obtained by the experimental procedure mentioned above.”
(§4) Tables B14 to B16 below show the crop plant compatibilities of selected compounds of the general formula (I) according to Tables I.1 to I.36 at an application rate corresponding to 20 g/ha, which were obtained in experiments according to the experimental procedure mentioned above. Here, the observed effects on selected crop plants are stated in comparison to the untreated controls (values in %).

Triticum aestivum [20] = assay: Pre-emergence crop plant compatibility; conditions: application rate 20 g/ha
Source text: as §3
as §1, with “Seeds” for “B. Pre-Emergence Herbicidal Action and Crop Plant Compatibility Seeds”, “plants.” for “plants. Tables B1 to B13 below show the effects of selected compounds of the general formula (I) according to Tables I.1 to I.36 on various harmful plants and at an application rate corresponding to 80 g/ha or less, which were obtained by the experimental procedure mentioned above.”
as §4

Amaranthus retroflexus [21] = assay: Post-emergence herbicidal action; conditions: application rate 5 g/ha, rated visually after about 3 weeks vs untreated controls
Method in brief: as §2

Abutilon theophrasti [22] = assay: Post-emergence herbicidal action; conditions: application rate 5 g/ha, rated visually after about 3 weeks vs untreated controls
Method in brief: as §2

Triticum aestivum [23] = assay: Post-emergence crop plant compatibility; conditions: application rate 5 g/ha
Method in brief: (§5)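 Greenhouse crop plants in sandy loam sprayed at one-leaf stage (2-3 weeks after sowing) with WP or EC formulations plus 0.5% additive, 600 l/ha water, at 5 g/ha or 20 g/ha. Damage scored visually after about 3 weeks as % versus untreated controls (100% = plants dead).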

Alopecurus myosuroides [24] = assay: Post-emergence herbicidal action; conditions: application rate 5 g/ha, rated visually after about 3 weeks vs untreated controls
Method in brief: as §2

Setaria viridis [25] = assay: Post-emergence herbicidal action; conditions: application rate 5 g/ha, rated visually after about 3 weeks vs untreated controls
Method in brief: as §2

Avena fatua [26] = assay: Post-emergence herbicidal action; conditions: application rate 20 g/ha, rated visually after about 3 weeks vs untreated controls
Method in brief: as §2

Viola tricolor [27] = assay: Post-emergence herbicidal action; conditions: application rate 5 g/ha
Method in brief: as §2

Polygonum convolvulus [28] = assay: Post-emergence herbicidal action; conditions: application rate 5 g/ha
Method in brief: as §2

Hordeum murinum = assay: Post-emergence herbicidal action; conditions: application rate 20 g/ha
Method in brief: as §2

Lolium rigidum [29] = assay: Post-emergence herbicidal action; conditions: application rate 20 g/ha, rated visually after about 3 weeks vs untreated controls
Method in brief: as §2

Stellaria media = assay: Post-emergence herbicidal action; conditions: application rate 5 g/ha, rated visually after about 3 weeks vs untreated controls
Method in brief: as §2

Oryza sativa = assay: Post-emergence crop plant compatibility; conditions: application rate 5 g/ha
Method in brief: as §5

Zea mays [30] = assay: Post-emergence crop plant compatibility; conditions: application rate 5 g/ha
Method in brief: as §5

Triticum aestivum (efficacy in %) (Triticum aestivum [20]) | Structure (SMILES) | Amaranthus retroflexus (efficacy in %) (Amaranthus retroflexus [1]) | Echinochloa crus-galli (efficacy in %) (Echinochloa crus-galli [3]) | Setaria viridis (efficacy in %) (Setaria viridis [4]) | Avena fatua (efficacy in %) (Avena fatua [5]) | Abutilon theophrasti (efficacy in %) (Abutilon theophrasti [6]) | Matricaria inodora (efficacy in %) (Matricaria inodora [7]) | Viola tricolor (efficacy in %) (Viola tricolor [8]) | Polygonum convolvulus (efficacy in %) (Polygonum convolvulus [9]) | Digitaria sanguinalis (efficacy in %) (Digitaria sanguinalis [10]) | Veronica persica (efficacy in %) (Veronica persica [11]) | Lolium rigidum (efficacy in %) (Lolium rigidum [12]) | Pharbitis purpurea (efficacy in %) (Pharbitis purpurea [13]) | Echinochloa crus-galli (efficacy in %) (Echinochloa crus-galli [14]) | Matricaria inodora (efficacy in %) (Matricaria inodora [15]) | Digitaria sanguinalis (efficacy in %) (Digitaria sanguinalis [16]) | Veronica persica (efficacy in %) (Veronica persica [17]) | Pharbitis purpurea (efficacy in %) (Pharbitis purpurea [18]) | Amaranthus retroflexus (efficacy in %) (Amaranthus retroflexus [21]) | Abutilon theophrasti (efficacy in %) (Abutilon theophrasti [22]) | other results
20% | CC(C#N)COC(=O)COc1ncccc1Oc1cc(-n2c(=O)cc(C(F)(F)F)n(C)c2=O)c(F)cc1Cl (stereo not shown) [I.15-405] | 100% | 80% | 100% | 100% | 100% | 100% | 100% | 90% | 100% | 100% | 100% | 100% | 100% | 80% | 100% | 100% | 100% |  |  | Alopecurus myosuroides (efficacy in %) (Alopecurus myosuroides [2]; application rate 80 g/ha): 100%; Zea mays (efficacy in %) (Zea mays [19]): 0%
20% | Cn1c(C(F)(F)F)cc(=O)n(-c2cc(Oc3cccnc3OCC(=O)OCCS(C)(=O)=O)c(Cl)cc2F)c1=O [I.15-166] | 100% | 80% | 100% | 100% | 100% | 100% | 100% | 100% | 100% | 100% | 100% | 100% |  |  |  | 100% |  | 100% | 100% | Alopecurus myosuroides (efficacy in %) (Alopecurus myosuroides [2]; application rate 20 g/ha): 90%; Triticum aestivum (efficacy in %) (Triticum aestivum [23]): 0%
 | Cn1c(C(F)(F)F)cc(=O)n(-c2cc(Sc3cccnc3SCC(=O)OCC3CCCO3)c(Cl)cc2F)c1=O (stereo not shown) [I.10-71] |  |  |  |  |  |  |  |  |  |  |  |  | 100% | 80% | 90% | 90% | 100% | 100% | 100% | Alopecurus myosuroides (efficacy in %) (Alopecurus myosuroides [24]): 80%; Setaria viridis (efficacy in %) (Setaria viridis [25]): 100%; Avena fatua (efficacy in %) (Avena fatua [26]): 80%; Viola tricolor (efficacy in %) (Viola tricolor [27]): 100%; Polygonum convolvulus (efficacy in %) (Polygonum convolvulus [28]): 100%; Hordeum murinum (efficacy in %) (Hordeum murinum): 80%; Lolium rigidum (efficacy in %) (Lolium rigidum [29]): 80%; Stellaria media (efficacy in %) (Stellaria media): 100%; Oryza sativa (efficacy in %) (Oryza sativa): 20%; Zea mays (efficacy in %) (Zea mays [30]): 20%
